What was measured:
[1] = system: GluR-mediated miniature excitatory postsynaptic currents (mEPSCs) in hippocampal neurons; assay: mEPSCs in cultured rat hippocampal neurons, whole-cell patch clamp (normoxia); format: cell-based; conditions: for effect on GluR-mediated mEPSCs: cultured hippocampal neurons, normoxia, in presence of MK-801
Parkinson's disease = conditions: oral administration, patients; cited from earlier work
cocaine dependence = conditions: orally administered, patients; cited from earlier work
[2] = versus 55-60 μM in healthy patients; cited from earlier work

For `N[C@@H](Cc1ccc(O)cc1)C(=O)O` [L-Tyr, L-tyrosine], the “effect on GluR-mediated mEPSCs” value [1] was “significantly and reversibly attenuate”.

For `N[C@H](Cc1ccccc1)C(=O)O` [D-phenylalanine], the “clinical benefit in Parkinson's disease” value (Parkinson's disease) is listed as “conferred some benefit”.

For `N[C@@H](Cc1ccc(O)cc1)C(=O)O` [tyrosine], the “clinical benefit in cocaine dependence” value (cocaine dependence) is given as “did not confer a benefit”.

For `N[C@@H](Cc1ccccc1)C(=O)O` [L-Phe, L-phenylalanine], the “blood concentration of L-Phe causing phenylketonuria (PKU)” value [2] is listed as > 1200 µM, the “effect on frequency of mEPSCs (concentration-dependence)” value ([1]; L-Phe 0.1-3 mM, normalized to control, 5 to 8 cells, P<0.01 compared to control) is listed as “concentration-dependence of attenuation of the frequency of mEPSCs” and the “effect on GluR-mediated mEPSCs” value [1] is listed as “significantly and reversibly attenuate”.

For `N[C@@H](Cc1c[nH]c2ccccc12)C(=O)O` [L-Trp, L-Tryptophan], the “effect on GluR-mediated mEPSCs” value [1] was “significantly and reversibly attenuate”.

— patent publication US6620850B2, “Materials and methods for treatment of neurological disorders involving overactivation of glutamatergic ionotropic receptors” (University of Florida, priority 2001, dated 2003)
